The values below come from ChEMBL document CHEMBL4400539, “Discovery of a Novel Chemotype of Histone Lysine Methyltransferase EHMT1/2 (GLP/G9a) Inhibitors: Rational Design, Synthesis, Biological Evaluation, and Co-crystal Structure” (J Med Chem, 2019).

In data set [1] the target is T1, Histone-lysine N-methyltransferase EHMT2 (Homo sapiens, UniProt Q96KQ7).
T1 sequence (Q96KQ7 whole entry): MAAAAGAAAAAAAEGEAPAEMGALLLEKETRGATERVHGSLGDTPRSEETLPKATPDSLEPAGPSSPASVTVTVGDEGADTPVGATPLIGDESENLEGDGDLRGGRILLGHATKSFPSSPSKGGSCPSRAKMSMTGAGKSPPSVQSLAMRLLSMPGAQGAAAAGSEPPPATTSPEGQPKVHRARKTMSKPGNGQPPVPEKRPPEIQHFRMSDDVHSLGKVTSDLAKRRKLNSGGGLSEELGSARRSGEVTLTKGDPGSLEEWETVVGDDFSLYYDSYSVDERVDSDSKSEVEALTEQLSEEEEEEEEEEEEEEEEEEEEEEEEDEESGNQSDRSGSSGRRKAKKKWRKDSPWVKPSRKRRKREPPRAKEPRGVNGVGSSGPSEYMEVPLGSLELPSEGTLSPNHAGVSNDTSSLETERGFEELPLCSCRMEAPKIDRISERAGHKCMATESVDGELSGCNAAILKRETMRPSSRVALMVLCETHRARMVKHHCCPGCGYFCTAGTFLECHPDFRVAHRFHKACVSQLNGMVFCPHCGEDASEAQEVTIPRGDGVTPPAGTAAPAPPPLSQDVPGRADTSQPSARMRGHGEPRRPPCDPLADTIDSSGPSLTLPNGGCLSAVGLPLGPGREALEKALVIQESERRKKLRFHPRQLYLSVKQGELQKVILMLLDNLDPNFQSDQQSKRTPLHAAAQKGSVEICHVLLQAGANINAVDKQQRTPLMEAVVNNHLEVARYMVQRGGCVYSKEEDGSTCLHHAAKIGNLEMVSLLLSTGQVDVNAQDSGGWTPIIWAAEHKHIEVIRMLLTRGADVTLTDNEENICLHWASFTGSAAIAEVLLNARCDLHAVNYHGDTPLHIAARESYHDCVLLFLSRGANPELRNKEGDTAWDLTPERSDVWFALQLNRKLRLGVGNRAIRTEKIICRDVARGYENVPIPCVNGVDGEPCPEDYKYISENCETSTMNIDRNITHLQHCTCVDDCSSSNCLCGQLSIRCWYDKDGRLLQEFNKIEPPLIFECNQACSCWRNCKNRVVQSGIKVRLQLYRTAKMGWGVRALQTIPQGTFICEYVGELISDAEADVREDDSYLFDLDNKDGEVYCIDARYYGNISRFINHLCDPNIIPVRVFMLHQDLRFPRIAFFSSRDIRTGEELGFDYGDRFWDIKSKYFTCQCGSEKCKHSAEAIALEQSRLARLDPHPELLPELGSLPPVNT
Kind of data set: Inhibition G9a (unknown origin).

Data set [2] deals with T1, Histone-lysine N-methyltransferase EHMT2. Kind of data set: Inhibition of recombinant human G9a using biotinylated-Histone H3 peptide (1 to 21 residues) after 30 mins in presence of SAM by AlphaLISA assay.
Data set [3] is described as follows: Apparent permeability of the compound after 24 hrs by BBB-PAMPA. The class given is ADME. Background: The PAMPA barrier holds no transporters, so it reflects passive diffusion.
A short description of data set [4]: Apparent permeability of the compound after 24 hrs by PAMPA. In kind it is ADME.
Data set [5] in a line: Metabolic stability in human liver microsomes assessed as parent compound turn over percentage at 1 mM preincubated for 5 mins followed by NADPH addition and measured for 60 mins by UHPLC analysis. In kind it is ADME, Microsome. Conditions: read-out: Drug metabolism. (Microsomes from liver hold many membrane-bound enzymes, among them those of drug oxidation.)

By IC50 is commonly meant the concentration needed to halve the response being measured. On to `COc1cc2c(NC3CCN(CCCCCN)CC3)nc(NCCCN(C)C)nc2cc1OCCCCCN`, for which, in data set [1], the IC50 was found to be 160 nM. Regarding `COc1cc2c(cc1OCCCN1CCCC1)NC(C1CCCCC1)CN=C2NC1CCN(C(C)C)CC1` (stereo not drawn), the IC50 in data set [2] worked out at 955 nM. On the same count and under the same terms, under `COc1cc2c(cc1OCCCN1CCCC1)N=C(c1ccccc1)CN=C2NC1CCN(C(C)C)CC1` stands 1090 nM. For the compound `COc1cc2c(NC3CCN(C(C)C)CC3)nc(C3CCCCC3)nc2cc1OCCCN1CCCC1`, the Papp in data set [3] is reported as 0.19 ×10⁻⁷ cm/s; in data set [4], 0.49 ×10⁻⁷ cm/s. In data set [5], the metabolised at 1 h was determined as 2.93%. As to `COc1cc2c(cc1OCCCN1CCCC1)NC(c1ccccc1)CN=C2NC1CCN(C(C)C)CC1` (stereo not drawn), the IC50 in data set [2] stood at 2090 nM. The same measure, in the same setting: under `COc1cc2c(cc1OCCCN1CCCC1)N=C(C1CCCCC1)CC(NC1CCN(C(C)C)CC1)=N2` stands 2980 nM.
